Experimental data: ChEMBL document CHEMBL1142186, “Multistep resistance selection and postantibiotic-effect studies of the antipneumococcal activity of LBM415 compared to other agents” (2007)
Values after ≈ are worked out from the molar mass of the structure shown.

Columns and labels:
Streptococcus pneumoniae [1] = assay: Antibacterial activity against moxifloxacin resistance selected Streptococcus pneumoniae 3665 with GyrA S81Y mutation after 10 antibiotic-free subcultures by macrodilution method; format: functional
Streptococcus pneumoniae [2] = assay: Antibacterial activity against clarithromycin resistance selected Streptococcus pneumoniae 3665 after 10 antibiotic-free subcultures by macrodilution method; format: functional
Streptococcus pneumoniae [3] = assay: Antibacterial activity against gatifloxacin resistance selected Streptococcus pneumoniae 1076 with ParC S79Y mutation after 10 antibiotic-free subcultures by macrodilution method; format: functional
Streptococcus pneumoniae [4] = assay: Antibacterial activity against moxifloxacin resistance selected Streptococcus pneumoniae 24 with GyrA S81Y, GyrB P413S and ParC S79F mutation after 10 antibiotic-free subcultures by macrodilution method; format: functional
Streptococcus pneumoniae [5] = assay: Antibacterial activity against azithromycin resistance selected Streptococcus pneumoniae 2527 after 10 antibiotic-free subcultures by macrodilution method; format: functional
Streptococcus pneumoniae [6] = assay: Antibacterial activity against moxifloxacin resistance selected Streptococcus pneumoniae 1076 with ParC S79Y mutation after 10 antibiotic-free subcultures by macrodilution method; format: functional
Streptococcus pneumoniae [7] = assay: Antibacterial activity against moxifloxacin resistance selected Streptococcus pneumoniae 3009 with GyrA S81F and ParC D83N mutation after 10 antibiotic-free subcultures by macrodilution method; format: functional
Streptococcus pneumoniae [8] = assay: Antibacterial activity against gatifloxacin resistance selected Streptococcus pneumoniae 1076 with ParC S79Y mutation after 20 passages by macrodilution method; format: functional
Streptococcus pneumoniae [9] = assay: Antibacterial activity against clarithromycin resistance selected Streptococcus pneumoniae 3676 after 10 antibiotic-free subcultures by macrodilution method; format: functional
Streptococcus pneumoniae [10] = assay: Antibacterial activity against Streptococcus pneumoniae assessed as period of suppression of bacterial growth; format: functional
Streptococcus pneumoniae [11] = assay: Antibacterial activity against moxifloxacin resistance selected Streptococcus pneumoniae 3676 with GyrA E85G, GyrB S478I and ParC S79Y mutation after 10 antibiotic-free subcultures by macrodilution method; format: functional
Streptococcus pneumoniae [12] = assay: Antibacterial activity against clarithromycin resistance selected Streptococcus pneumoniae 3009 after 10 antibiotic-free subcultures by macrodilution method; format: functional
Streptococcus pneumoniae [13] = assay: Antibacterial activity against azithromycin resistance selected Streptococcus pneumoniae 1077 with 23S rRNA A2058G mutation after 10 antibiotic-free subcultures by macrodilution method; format: functional
Streptococcus pneumoniae [14] = assay: Antibacterial activity against gatifloxacin resistance selected Streptococcus pneumoniae 3009 after 10 antibiotic-free subcultures by macrodilution method; format: functional
Streptococcus pneumoniae [15] = assay: Antibacterial activity against Streptococcus pneumoniae 1076 by macrodilution method; format: functional
Streptococcus pneumoniae [16] = assay: Antibacterial activity against Streptococcus pneumoniae 37 by macrodilution method; format: functional
Streptococcus pneumoniae [17] = assay: Antibacterial activity against moxifloxacin resistance selected Streptococcus pneumoniae 3243 after 10 antibiotic-free subcultures by macrodilution method; format: functional
Streptococcus pneumoniae [18] = assay: Antibacterial activity against gatifloxacin resistance selected Streptococcus pneumoniae 3009 after 14 passages by macrodilution method; format: functional
Streptococcus pneumoniae [19] = assay: Antibacterial activity against gatifloxacin resistance selected Streptococcus pneumoniae 37 with GyrA S81Y, GyrB E474K and ParC S79Y mutation after 10 antibiotic-free subcultures by macrodilution method; format: functional
Streptococcus pneumoniae [20] = assay: Antibacterial activity against gatifloxacin resistance selected Streptococcus pneumoniae 37 with GyrA S81Y, GyrB E474K and ParC S79Y mutation after 14 passages by macrodilution method; format: functional
Streptococcus pneumoniae [21] = assay: Antibacterial activity against azithromycin resistance selected Streptococcus pneumoniae 3243 with L22 insertion 93SFRPRA94 mutation after 10 antibiotic-free subcultures by macrodilution method; format: functional
Streptococcus pneumoniae [22] = assay: Antibacterial activity against levofloxacin resistance selected Streptococcus pneumoniae 19 with GyrA S81Y and ParC D83Y mutation after 10 antibiotic-free subcultures by macrodilution method; format: functional
Streptococcus pneumoniae [23] = assay: Antibacterial activity against clarithromycin resistance selected Streptococcus pneumoniae 3243 with 23S rRNA A2059T mutation after 10 antibiotic-free subcultures by macrodilution method; format: functional
Streptococcus pneumoniae [24] = assay: Antibacterial activity against Streptococcus pneumoniae 3009 by macrodilution method; format: functional
Streptococcus pneumoniae [25] = assay: Antibacterial activity against moxifloxacin resistance selected Streptococcus pneumoniae 19 with GyrA S81F mutation after 10 antibiotic-free subcultures by macrodilution method; format: functional
Streptococcus pneumoniae [26] = assay: Antibacterial activity against levofloxacin resistance selected Streptococcus pneumoniae 3009 with GyrA S81Y and ParC S79Y mutation after 10 antibiotic-free subcultures by macrodilution method; format: functional
Streptococcus pneumoniae [27] = assay: Antibacterial activity against moxifloxacin resistance selected Streptococcus pneumoniae 19 with GyrA S81F mutation after 32 passages by macrodilution method; format: functional
Streptococcus pneumoniae [28] = assay: Antibacterial activity against moxifloxacin resistance selected Streptococcus pneumoniae 3243 after 20 passages by macrodilution method; format: functional
Streptococcus pneumoniae [29] = assay: microbe, parasite or virus in culture
Streptococcus pneumoniae [30] = assay: Antibacterial activity against moxifloxacin resistance selected Streptococcus pneumoniae 1076 with ParC S79Y mutation after 35 passages by macrodilution method; format: functional
Streptococcus pneumoniae [31] = assay: Antibacterial activity against moxifloxacin resistance selected Streptococcus pneumoniae 3676 with GyrA E85G, GyrB S478I and ParC S79Y mutation after 50 passages by macrodilution method; format: functional
Streptococcus pneumoniae [32] = assay: Antibacterial activity against moxifloxacin resistance selected Streptococcus pneumoniae 3665 with GyrA S81Y mutation after 38 passages by macrodilution method; format: functional
Streptococcus pneumoniae [33] = assay: Antibacterial activity against moxifloxacin resistance selected Streptococcus pneumoniae 3009 with GyrA S81F and ParC D83N mutation after 19 passages by macrodilution method; format: functional
Streptococcus pneumoniae [34] = assay: Antibacterial activity against azithromycin resistance selected Streptococcus pneumoniae 3243 with L22 insertion 93SFRPRA94 mutation after 33 passages by macrodilution method; format: functional
Streptococcus pneumoniae [35] = assay: Antibacterial activity against Streptococcus pneumoniae 2527 by macrodilution method; format: functional
Streptococcus pneumoniae [36] = assay: Antibacterial activity against Streptococcus pneumoniae 1077 by macrodilution method; format: functional
Streptococcus pneumoniae [37] = assay: Antibacterial activity against azithromycin resistance selected Streptococcus pneumoniae 1077 with 23S rRNA A2058G mutation after 29 passages by macrodilution method; format: functional
Streptococcus pneumoniae [38] = assay: Antibacterial activity against azithromycin resistance selected Streptococcus pneumoniae 2527 after 20 passages by macrodilution method; format: functional
Streptococcus pneumoniae [39] = assay: Antibacterial activity against Streptococcus pneumoniae 3243 by macrodilution method; format: functional

| Compound | MIC (Streptococcus pneumoniae [1]) | MIC (Streptococcus pneumoniae [2]) | MIC (Streptococcus pneumoniae [3]) | MIC (Streptococcus pneumoniae [4]) | MIC (Streptococcus pneumoniae [5]) | MIC (Streptococcus pneumoniae [6]) | MIC (Streptococcus pneumoniae [7]) | MIC (Streptococcus pneumoniae [9]) | Post Antibiotic Effe (Streptococcus pneumoniae [10]) | MIC (Streptococcus pneumoniae [11]) | MIC (Streptococcus pneumoniae [12]) | MIC (Streptococcus pneumoniae [13]) | MIC (Streptococcus pneumoniae [14]) | MIC (Streptococcus pneumoniae [15]) | MIC (Streptococcus pneumoniae [17]) | MIC (Streptococcus pneumoniae [19]) | MIC (Streptococcus pneumoniae [21]) | MIC (Streptococcus pneumoniae [22]) | MIC (Streptococcus pneumoniae [25]) | MIC (Streptococcus pneumoniae [26]) | further results |
| --- | --- | --- | --- | --- | --- | --- | --- | --- | --- | --- | --- | --- | --- | --- | --- | --- | --- | --- | --- | --- | --- |
| COc1c(N2CCNC(C)C2)c(F)cc2c(=O)c(C(=O)O)cn(C3CC3)c12 (stereo not given) [GATIFLOXACIN] | 0.5 µg/mL (≈ 1.33 µM) | 0.25 µg/mL (≈ 0.666 µM) | 8 µg/mL (≈ 21.3 µM) | 4 µg/mL (≈ 10.7 µM) | 8 µg/mL (≈ 21.3 µM) | 8 µg/mL (≈ 21.3 µM) | 2 µg/mL (≈ 5.33 µM) | 0.5 µg/mL (≈ 1.33 µM) | 1.7 h | 2 µg/mL (≈ 5.33 µM) | 0.25 µg/mL (≈ 0.666 µM) | 8 µg/mL (≈ 21.3 µM) | 8 µg/mL (≈ 21.3 µM) | 2 µg/mL (≈ 5.33 µM) | 1 µg/mL (≈ 2.66 µM) | 16 µg/mL (≈ 42.6 µM) | 0.25 µg/mL (≈ 0.666 µM) | 4 µg/mL (≈ 10.7 µM) | 0.5 µg/mL (≈ 1.33 µM) | 8 µg/mL (≈ 21.3 µM) | MIC (Streptococcus pneumoniae [8]): 16 µg/mL (≈ 42.6 µM); MIC (Streptococcus pneumoniae [16]): 1 µg/mL (≈ 2.66 µM); MIC (Streptococcus pneumoniae [18]): 16 µg/mL (≈ 42.6 µM); MIC (Streptococcus pneumoniae [20]): 16 µg/mL (≈ 42.6 µM); MIC (Streptococcus pneumoniae [23]): 0.25 µg/mL (≈ 0.666 µM); MIC (Streptococcus pneumoniae [24]): 1 µg/mL (≈ 2.66 µM) |
| COc1c(N2C[C@@H]3CCCN[C@@H]3C2)c(F)cc2c(=O)c(C(=O)O)cn(C3CC3)c12 [MOXIFLOXACIN] | – | – | – | – | – | – | – | – | 1.5 h | 8 µg/mL (≈ 19.9 µM) | – | – | – | 1 µg/mL (≈ 2.49 µM) | – | 16 µg/mL (≈ 39.9 µM) | – | – | 2 µg/mL (≈ 4.98 µM) | 4 µg/mL (≈ 9.96 µM) | MIC (Streptococcus pneumoniae [27]): 1 µg/mL (≈ 2.49 µM); MIC (Streptococcus pneumoniae [28]): 1 µg/mL (≈ 2.49 µM); MIC (Streptococcus pneumoniae [29]): 4 µg/mL (≈ 9.96 µM); MIC (Streptococcus pneumoniae [30]): 8 µg/mL (≈ 19.9 µM); MIC (Streptococcus pneumoniae [31]): 8 µg/mL (≈ 19.9 µM); MIC (Streptococcus pneumoniae [32]): 1 µg/mL (≈ 2.49 µM); MIC (Streptococcus pneumoniae [33]): 2 µg/mL (≈ 4.98 µM) |
| CC[C@H]1OC(=O)[C@H](C)[C@@H](O[C@H]2C[C@@](C)(OC)[C@@H](O)[C@H](C)O2)[C@H](C)[C@@H](O[C@@H]2O[C@H](C)C[C@H](N(C)C)[C@H]2O)[C@](C)(O)C[C@@H](C)CN(C)[C@H](C)[C@@H](O)[C@]1(C)O [AZITHROMYCIN] | 8 µg/mL (≈ 10.7 µM) | 8 µg/mL (≈ 10.7 µM) | > 128 µg/mL | > 128 µg/mL | 4 µg/mL (≈ 5.34 µM) | > 128 µg/mL | > 128 µg/mL | 16 µg/mL (≈ 21.4 µM) | 3.1 h | 4 µg/mL (≈ 5.34 µM) | 128 µg/mL (≈ 171 µM) | > 64 µg/mL | > 128 µg/mL | – | 0.016 µg/mL (≈ 0.0214 µM) | > 128 µg/mL | 0.5 µg/mL (≈ 0.668 µM) | > 128 µg/mL | > 128 µg/mL | 128 µg/mL (≈ 171 µM) | MIC (Streptococcus pneumoniae [34]): 0.25 µg/mL (≈ 0.334 µM); MIC (Streptococcus pneumoniae [35]): 0.016 µg/mL (≈ 0.0214 µM); MIC (Streptococcus pneumoniae [36]): 0.03 µg/mL (≈ 0.0401 µM); MIC (Streptococcus pneumoniae [37]): > 64 µg/mL; MIC (Streptococcus pneumoniae [38]): 4 µg/mL (≈ 5.34 µM); MIC (Streptococcus pneumoniae [39]): 0.03 µg/mL (≈ 0.0401 µM); MIC (Streptococcus pneumoniae [23]): 1 µg/mL (≈ 1.34 µM) |
